Results taken from patent publication US20180244611A1, “Modulators of the Cystic Fibrosis Transmembrane Conductance Regulator Protein and Methods of Use” (AbbVie S.à.r.l., priority 2017, published 2018).
pEC50: −log10 of the molar value.

Key:
F508delCFTR [1] = biological target: T1, F508delCFTR (Homo sapiens, UniProt P13569, DEL508-508); experiment: Cell Surface Expression-Horse Radish Peroxidase (CSE-HRP) assay, test compound without co-corrector; type: cell-based; conditions: for Emax: maximum at any tested concentration, normalized to positive control, without co-corrector; for pEC50: test compound without co-corrector;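 for Emax: percent of on-plate 2 µM positive control corrector response over DMSO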
T1 construct: expressed in transfected cells; host or cells: CFBE41o- human lung-derived epithelial cells (CFBE41o-F508delCFTR-HRP), doxycycline-inducible
Method in brief: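 CFBE41o- cells expressing F508delCFTR with HRP in the fourth exofacial loop, induced with 0.5 μg/mL doxycycline for 72 h at 37° C, then exposed to compound alone for 18-24 h at 33° C, 8-point 3-fold series from 20 μM. Surface HRP read by luminol luminescence, normalized to positive corrector control versus DMSO; EC50 from variable-slope sigmoidal fit of three replicate plates.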

F508delCFTR [2] = biological target: T1, F508delCFTR; experiment: Cell Surface Expression-Horse Radish Peroxidase (CSE-HRP) assay, test compound with co-corrector; type: cell-based; conditions: with 2 μM co-corrector; for Maximum % activity (with co-corrector): maximum at any tested concentration, normalized to positive control;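 for Maximum % activity (with co-corrector): percent of 2 µM positive control corrector over DMSO; co-corrector is that same compound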
Method in brief: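 CFBE41o- cells expressing F508delCFTR with HRP in the fourth exofacial loop, induced with 0.5 μg/mL doxycycline for 72 h, then treated 18-24 h at 33° C. with compound (8 points, top 20 μM, 3-fold) plus 2 μM co-corrector. Surface HRP read by luminol luminescence; activity normalised to positive control, EC50 from variable-slope sigmoidal fit.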

T1 sequence (P13569 with tags, fused parts or gaps DEL508-508): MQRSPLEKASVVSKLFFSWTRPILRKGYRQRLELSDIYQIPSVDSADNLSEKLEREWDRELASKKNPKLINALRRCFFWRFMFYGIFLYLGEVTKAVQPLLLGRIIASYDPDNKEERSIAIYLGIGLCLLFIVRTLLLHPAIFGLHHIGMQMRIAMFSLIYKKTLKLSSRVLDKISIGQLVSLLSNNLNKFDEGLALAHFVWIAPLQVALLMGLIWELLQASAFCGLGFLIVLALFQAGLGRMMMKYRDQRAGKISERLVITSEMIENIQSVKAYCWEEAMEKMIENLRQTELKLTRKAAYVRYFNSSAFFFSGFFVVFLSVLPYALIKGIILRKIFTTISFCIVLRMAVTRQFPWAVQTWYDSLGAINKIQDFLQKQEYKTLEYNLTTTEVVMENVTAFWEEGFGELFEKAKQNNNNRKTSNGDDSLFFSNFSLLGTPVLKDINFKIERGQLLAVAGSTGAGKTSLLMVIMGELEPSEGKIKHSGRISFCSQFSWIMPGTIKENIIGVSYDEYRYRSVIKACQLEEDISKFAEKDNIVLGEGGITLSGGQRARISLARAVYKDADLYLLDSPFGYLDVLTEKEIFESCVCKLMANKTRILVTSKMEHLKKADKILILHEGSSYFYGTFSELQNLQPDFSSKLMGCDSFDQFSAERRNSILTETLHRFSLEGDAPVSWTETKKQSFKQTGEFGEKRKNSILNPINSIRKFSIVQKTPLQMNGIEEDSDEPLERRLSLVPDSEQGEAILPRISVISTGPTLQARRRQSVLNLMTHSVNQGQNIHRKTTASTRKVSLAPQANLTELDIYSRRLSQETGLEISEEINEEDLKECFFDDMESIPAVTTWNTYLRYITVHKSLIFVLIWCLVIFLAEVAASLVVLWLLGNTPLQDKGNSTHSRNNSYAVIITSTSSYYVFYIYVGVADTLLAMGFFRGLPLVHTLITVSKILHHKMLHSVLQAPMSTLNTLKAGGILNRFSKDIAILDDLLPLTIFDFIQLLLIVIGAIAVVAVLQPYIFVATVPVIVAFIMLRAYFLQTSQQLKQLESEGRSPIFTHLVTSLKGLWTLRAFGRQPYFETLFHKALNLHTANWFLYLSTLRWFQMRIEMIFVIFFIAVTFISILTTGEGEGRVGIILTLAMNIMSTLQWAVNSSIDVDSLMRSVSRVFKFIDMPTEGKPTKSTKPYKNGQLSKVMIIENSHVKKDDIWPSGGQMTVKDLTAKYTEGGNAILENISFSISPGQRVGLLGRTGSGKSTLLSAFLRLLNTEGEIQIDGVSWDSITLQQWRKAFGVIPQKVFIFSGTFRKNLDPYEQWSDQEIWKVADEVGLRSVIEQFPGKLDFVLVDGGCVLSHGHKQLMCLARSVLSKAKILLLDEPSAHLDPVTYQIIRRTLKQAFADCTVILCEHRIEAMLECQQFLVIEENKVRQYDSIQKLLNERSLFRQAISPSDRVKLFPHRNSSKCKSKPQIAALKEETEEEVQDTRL

Row | SMILES | Emax (F508delCFTR [1]) [%] | pEC50 (F508delCFTR [1]) | Maximum % activity (with co-corrector) (F508delCFTR [2]) | pEC50 (F508delCFTR [2])
1 | COc1ccc(Br)c2c1C(C(=O)NS(=O)(=O)c1cccc3ncc(C)n13)CC2 (stereo not shown) [Example I-100, 4-bromo-7-methoxy-N-(3-methylimidazo[1,2-a]pyridine-5-sulfonyl)-2,3-dihydro-1H-indene-1-carboxamide] | ≥ 150 | > 5.52 | +++ (≥350) | > 5.52
2 | COc1ccc(Br)c2c1C(C(=O)NS(=O)(=O)c1cccc3nc(C)cn13)CC2 (stereo not shown) [Example I-101, 4-bromo-7-methoxy-N-(2-methylimidazo[1,2-a]pyridine-5-sulfonyl)-2,3-dihydro-1H-indene-1-carboxamide] | ≥ 150 | > 5.52 | +++ (≥350) | > 5.52
3 | COc1ccc(C2CCC2)c2c1C(C(=O)NS(=O)(=O)c1cccc3ccccc13)C2 (stereo not shown) [Example I-102, 2-cyclobutyl-5-methoxy-N-(naphthalene-1-sulfonyl)bicyclo[4.2.0]octa-1,3,5-triene-7-carboxamide] | ≥ 150 | > 5.52 | +++ (≥350) | > 5.52
4 | COc1ccc(C2CCC2)c2c1[C@H](C(=O)NS(=O)(=O)c1cccc3ncccc13)CC2 [Example I-103, (1R)-4-cyclobutyl-7-methoxy-N-(quinoline-5-sulfonyl)-2,3-dihydro-1H-indene-1-carboxamide] | ≥ 150 | 5.00 to 5.52 | +++ (≥350) | 5.00 to 5.52
5 | COc1ccc(C2CCC2)c2c1[C@@H](C(=O)NS(=O)(=O)c1cccc3ncccc13)CC2 [Example I-104, (1S)-4-cyclobutyl-7-methoxy-N-(quinoline-5-sulfonyl)-2,3-dihydro-1H-indene-1-carboxamide] | ≥ 150 | 5.00 to 5.52 | +++ (≥350) | > 5.52
6 | COc1ccc(Br)c2c1C(C(=O)NS(=O)(=O)c1cccc3c(O)cccc13)CC2 (stereo not shown) [Example I-105, 4-bromo-N-(5-hydroxynaphthalene-1-sulfonyl)-7-methoxy-2,3-dihydro-1H-indene-1-carboxamide] | ≥ 150 | 5.00 to 5.52 | +++ (≥350) | > 5.52
7 | COc1ccc(C)c2c1CC[C@H]2C(=O)NS(=O)(=O)c1cccc2ccccc12 [Example I-108, (1R)-4-methoxy-7-methyl-N-(naphthalene-1-sulfonyl)-2,3-dihydro-1H-indene-1-carboxamide] | ≥ 150 | 5.00 to 5.52 | +++ (≥350) | 5.00 to 5.52
8 | COc1ccc(C)c2c1CC[C@@H]2C(=O)NS(=O)(=O)c1cccc2ccccc12 [Example I-109, (1S)-4-methoxy-7-methyl-N-(naphthalene-1-sulfonyl)-2,3-dihydro-1H-indene-1-carboxamide] | ≥ 150 | 5.00 to 5.52 | +++ (≥350) | > 5.52
9 | COc1ncc(Br)c2c1C(C(=O)NS(=O)(=O)c1cccc3ccccc13)CC2 (stereo not shown) [Example I-110, 4-bromo-1-methoxy-N-(naphthalene-1-sulfonyl)-6,7-dihydro-5H-cyclopenta[c]pyridine-7-carboxamide] | ≥ 150 | 5.00 to 5.52 | +++ (≥350) | 5.00 to 5.52
10 | COc1ncc(C2CCC2)c2c1C(C(=O)NS(=O)(=O)c1cccc3ccccc13)CC2 (stereo not shown) [Example I-111, 4-cyclobutyl-1-methoxy-N-(naphthalene-1-sulfonyl)-6,7-dihydro-5H-cyclopenta[c]pyridine-7-carboxamide] | ≥ 150 | 5.00 to 5.52 | +++ (≥350) | 5.00 to 5.52
11 | COc1ncc(Cl)c2c1C(C(=O)NS(=O)(=O)c1cccc3ccccc13)CC2 (stereo not shown) [Example I-112, 4-chloro-1-methoxy-N-(naphthalene-1-sulfonyl)-6,7-dihydro-5H-cyclopenta[c]pyridine-7-carboxamide] | ≥ 150 | 5.00 to 5.52 | +++ (≥350) | 5.00 to 5.52
12 | COc1ncc(Br)c2c1C(C(=O)NS(=O)(=O)c1cccc3ccccc13)CCC2 (stereo not shown) [Example I-113, 4-bromo-1-methoxy-N-(naphthalene-1-sulfonyl)-5,6,7,8-tetrahydroisoquinoline-8-carboxamide] | ≥ 150 | 5.00 to 5.52 | +++ (≥350) | > 5.52
13 | COc1ccc(C2CCC2)c2c1C(C(=O)NS(=O)(=O)c1cccc3ncccc13)C2 (stereo not shown) [Example I-114, 2-cyclobutyl-5-methoxy-N-(quinoline-5-sulfonyl)bicyclo[4.2.0]octa-1,3,5-triene-7-carboxamide] | ≥ 150 | > 5.52 | +++ (≥350) | > 5.52
14 | COc1ncc(Br)c2c1[C@@H](C(=O)NS(=O)(=O)c1cccc3ccccc13)CCC2 [Example I-115, (8S)-4-bromo-1-methoxy-N-(naphthalene-1-sulfonyl)-5,6,7,8-tetrahydroisoquinoline-8-carboxamide] | ≥ 150 | 5.00 to 5.52 | +++ (≥350) | > 5.52
15 | COc1ncc(Br)c2c1[C@H](C(=O)NS(=O)(=O)c1cccc3ccccc13)CCC2 [Example I-116, (8R)-4-bromo-1-methoxy-N-(naphthalene-1-sulfonyl)-5,6,7,8-tetrahydroisoquinoline-8-carboxamide] | ≥ 150 | > 5.52 | +++ (≥350) | > 5.52
16 | COc1ccc(C(F)(F)F)c2c1[C@@H](C(=O)NS(=O)(=O)c1cccc3nc(C)ccc13)CC2 [Example I-117, (1S)-7-methoxy-N-(2-methylquinoline-5-sulfonyl)-4-(trifluoromethyl)-2,3-dihydro-1H-indene-1-carboxamide] | ≥ 150 | 5.00 to 5.52 | +++ (≥350) | 5.00 to 5.52
17 | COc1ccc(C(F)(F)F)c2c1[C@H](C(=O)NS(=O)(=O)c1cccc3nc(C)ccc13)CC2 [Example I-118, (1R)-7-methoxy-N-(2-methylquinoline-5-sulfonyl)-4-(trifluoromethyl)-2,3-dihydro-1H-indene-1-carboxamide] | ≥ 150 | > 5.52 | +++ (≥350) | > 5.52
18 | COc1ccc(C2CCC2)c2c1C(C(=O)NS(=O)(=O)c1cccc3c1NCCC3)CC2 (stereo not shown) [Example I-119, 4-cyclobutyl-7-methoxy-N-(1,2,3,4-tetrahydroquinoline-8-sulfonyl)-2,3-dihydro-1H-indene-1-carboxamide] | ≥ 150 | 5.00 to 5.52 | +++ (≥350) | 5.00 to 5.52
19 | COc1ncc(C2CCC2)c2c1[C@H](C(=O)NS(=O)(=O)c1cccc3ccccc13)CCC2 [Example I-120, (8R)-4-cyclobutyl-1-methoxy-N-(naphthalene-1-sulfonyl)-5,6,7,8-tetrahydroisoquinoline-8-carboxamide] | ≥ 150 | > 5.52 | +++ (≥350) | > 5.52
20 | COc1ncc(C2CCC2)c2c1[C@@H](C(=O)NS(=O)(=O)c1cccc3ccccc13)CCC2 [Example I-121, (8S)-4-cyclobutyl-1-methoxy-N-(naphthalene-1-sulfonyl)-5,6,7,8-tetrahydroisoquinoline-8-carboxamide] | ≥ 150 | 5.00 to 5.52 | +++ (≥350) | 5.00 to 5.52
21 | COc1ccc(C2CCC2)c2c1[C@@H](C(=O)NS(=O)(=O)c1cccc3c1CCCN3)CC2 [Example I-122, (1S)-4-cyclobutyl-7-methoxy-N-(1,2,3,4-tetrahydroquinoline-5-sulfonyl)-2,3-dihydro-1H-indene-1-carboxamide] | ≥ 150 | 5.00 to 5.52 | +++ (≥350) | 5.00 to 5.52
22 | COc1ccc(C2CCC2)c2c1[C@@H](C(=O)NS(=O)(=O)c1cccc3ncn(C)c13)CC2 [Example I-123, (1S)-4-cyclobutyl-7-methoxy-N-(1-methyl-1H-benzimidazole-7-sulfonyl)-2,3-dihydro-1H-indene-1-carboxamide] | ≥ 150 | 5.00 to 5.52 | +++ (≥350) | > 5.52
23 | C=C(C)c1ccc(OC)c2c1CCC2C(=O)NS(=O)(=O)c1cccc2ccccc12 (stereo not shown) [Example I-124, 7-methoxy-N-(naphthalene-1-sulfonyl)-4-(prop-1-en-2-yl)-2,3-dihydro-1H-indene-1-carboxamide] | ≥ 150 | > 5.52 | +++ (≥350) | > 5.52
24 | COc1ccc(C(C)(C)O)c2c1C(C(=O)NS(=O)(=O)c1cccc3ccccc13)CC2 (stereo not shown) [Example I-125, 4-(2-hydroxypropan-2-yl)-7-methoxy-N-(naphthalene-1-sulfonyl)-2,3-dihydro-1H-indene-1-carboxamide] | 50 to 150 | 5.00 to 5.52 | +++ (≥350) | 5.00 to 5.52
25 | COc1ccc(C2CCC2)c2c1[C@H](C(=O)NS(=O)(=O)c1cccc3ncn(C)c13)CC2 [Example I-126, (1R)-4-cyclobutyl-7-methoxy-N-(1-methyl-1H-benzimidazole-7-sulfonyl)-2,3-dihydro-1H-indene-1-carboxamide] | ≥ 150 | > 5.52 | +++ (≥350) | > 5.52
